The test system of assay [1] is Staphylococcus aureus. In words: Antimicrobial activity against Methicillin-resistant Staphylococcus aureus assessed as bacterial growth inhibition by microtiter dilution plate method. Type of assay: functional.
In assay [2] the test system is Staphylococcus aureus. In words: Antimicrobial activity against Methicillin-resistant Staphylococcus aureus assessed as bacterial growth inhibition by agar well diffusion method. Type of assay: functional.
Assay [3] relates to Staphylococcus aureus. In words: Antimicrobial activity against Methicillin-resistant Staphylococcus aureus ATCC 700699 assessed as bacterial growth inhibition incubated for 20 to 24 hrs by microdilution method. Type of assay: functional. The following applies: time 20-24 hrs. A general note: In broth dilution the organism is exposed to a series of concentrations in liquid medium.

Assay [4] has as its system Staphylococcus aureus. In words: Antimicrobial activity against Staphylococcus aureus LysRs assessed as bacterial growth inhibition by microdilution method. Type of assay: functional, organism-based.
Assay [5] relates to Staphylococcus aureus. In words: Antimicrobial activity against Methicillin-resistant Staphylococcus aureus assessed as bacterial growth inhibition incubated for 24 hrs by microdilution method. Type of assay: functional.
In assay [6] the test system is Staphylococcus aureus. In words: Antimicrobial activity against Methicillin-resistant Staphylococcus aureus assessed as bacterial growth inhibition incubated for 24 hrs by agar disc diffusion method. In kind it is functional.

Converted amounts (≈) assume the structure as drawn.

With `c1ccc(-c2cnn3c4c(cnc23)CCCCCC4)cc1`, in assay [1], the MIC (commonly the least concentration at which growth counts as inhibited) was 9 µg/mL. Also, the “inhibition zone (IZ)” value in assay [2] stood at 50 mm. Turning to `O=C(O)c1ccc(-n2cc(/C=N/Nc3ccc([N+](=O)[O-])cc3)c(-c3cccc(F)c3)n2)cc1`, in assay [3], the MIC came out at 0.78 µg/mL (≈ 1.75 µM).

For `CCc1c2[nH]c(=O)[nH]c(=O)c2nn1CC1CCC1`, in assay [4], the IC50 – broadly, the concentration that inhibits the measured activity by half – came to 21.7 µM.

As for `CCOC(=O)c1nn(-c2ccccc2)cc1C(=O)c1ccc(S(=O)(=O)c2ccccc2)cc1`, the minimal inhibitory concentration (MIC) in assay [5] was 25 µg/mL (≈ 54.3 µM). Moreover, the “inhibition zone (IZ)” value in assay [6] came out at 14 mm.

(Values after ChEMBL document CHEMBL5241058, “Pyrazole-based analogs as potential antibacterial agents against methicillin-resistance staphylococcus aureus (MRSA) and its SAR elucidation” (Eur J Med Chem, 2021).)
